Assay results published in patent US20110110916A1, “METHODS FOR TREATING AND/OR PREVENTING CARDIOMYOPATHIES BY ERK OR JNK INHIBITION” (priority 2008, published 2011).

Tests used:
cyclooxygenase-1 = conditions: reference 137; cited from earlier work
C2C12 cells = experiment: ERK1/2 phosphorylation in C2C12 cells treated with Emd and Lmna siRNAs (immunoblot, ELISA); format: cell-based, mouse; conditions: 45 μM for 24 hours
Experimental: (§1) Human HeLa cells and mouse C2C12 cells were maintained in a 5% CO2 atmosphere at 37° C. The cells were cultured in Dulbecco's modified Eagle's medium supplemented with 10% calf bovine serum and 0.1% gentamicin.
(§2) One day before transfection, HeLa and C2C12 cells were trypsinized, diluted with fresh medium without antibiotics and transferred to 24-well plates. Transient transfection of siRNAs was carried out using Oligofectamine (Invitrogen) as recommended by the manufacturer. Cells were preincubated in 7.5 μl OPTIMEM 1 medium (Life Technologies) and 2 μl Oligofectamine per well for 5 minutes at room temperature. During the time of this incubation, 40 μl OPTIMEM 1 medium were mixed with 2.5 μl siRNA. The two mixtures were combined and incubated for 20 minutes at room temperature for complex formation. The entire mixture was added to the cells in one well resulting in a final concentration of […] for the siRNAs. […]
(§3) Proteins were separated by SDS-PAGE, transferred to nitrocellulose membranes and blotted with primary antibodies against ERK1/2 (Santa-Cruz), pERK1/2 (Cell Signaling), lamin A/C (Santa-Cruz), emerin (Novocatra), β-actin (Sant-Cruz) and Gapdh (Santa-Cruz). […] Band densities were calculated using Scion Image software (Scion Corporation) and normalized to the appropriate total extract to control for protein loading. […]

cyclooxygenase-2 = conditions: reference 137; cited from earlier work
Lmna^H222P/H222P mice = format: in vivo, mouse; conditions: for development of LV dilatation: echocardiography (PD98059 also histopathology); for EF / FS / IVSD / LVEDD / LVESD / LVPW: Lmna^H222P/H222P mice at 16 weeks of age, i.p. 5 days a week from 8 to 16 weeks (PD98059, SP600125 3 mg/kg/day), means ± standard deviations
Experimental: PD98059 (Calbiochem) and SP600125 (Calbiochem) were dissolved in Dimethyl Sulfoxide (DMSO, Sigma) at a concentration of 0.5 mg/ml and were delivered to a dose of 3 mg/kg/day for 5 days a week. […] The placebo control consisted of DMSO alone. Placebo and inhibitors were administered by intraperitoneal injection using a 27G^5/8 syringe. Treatment was started when mice were 8 weeks of age and continued until 16 weeks of age.
Lmna H222P knock-in mice were generated and genotyped as described (14). […] Lmna^H222P/H222P mice were separated by sex and were given either vehicle alone (DMSO), the MEK inhibitor PD98059 alone, the JNK inhibitor SP600125 alone, both PD98059 and SP600125 together, the MEK inhibitor U0126 alone, or the MEK inhibitor MEK1/2 alone. All the mice were fed on a chow diet and housed in a barrier facility. The Institutional Animal Care and Use Committee at Columbia University Medical Center approved the use of animals in the study protocol.
Cardiac function was assessed by echocardiography with a Visualsonics Vevo 770 ultrasound with a 30-MHz transducer applied to the chest wall. Cardiac ventricular dimensions and ejection fraction were measured in 2D-mode and M-mode three times for the number of animals indicated. A “blinded” echocardiographer, unaware of the genotype or treatment, performed the examinations.
We administered PD98059, at a dose of 3 mg/kg/day or 6 mg/kg/day, or placebo (dimethylsulfoxide; DMSO) by intraperitoneal injection 5 days a week to male homozygous Lmna mutant mice (Lmna^H222P/H222P). […] PD98059 mediates its inhibitory properties by binding to MEK, therefore preventing phosphorylation of ERK1/2.
Treatment was initiated at 8 weeks of age and continued until the mice were 16 weeks of age. At 16 weeks of age, the mice were analyzed by echocardiography and then sacrificed for histological and biochemical studies. Untreated male Lmna^+/+ and Lmna^H222P/H222P mice were similarly analyzed for comparisons.

HeLa cells = experiment: ERK1/2 phosphorylation in HeLa cells treated with Emd and Lmna siRNAs; format: cell-based, human; conditions: 45 μM for 24 hours
Experimental: as §1, §2, §3

[1] = 16 weeks of age, treated 8 to 16 weeks

| Structure (SMILES) | activity against cyclooxygenase-1 (cyclooxygenase-1) | increase in pERK (immunoblot) (C2C12 cells; C2C12 cells treated with Emd and Lmna siRNAs) | ERK1/2 phosphorylation (ELISA) (C2C12 cells; siRNA-treated C2C12 cells (FIG. 20B)) | activity against cyclooxygenase-2 (cyclooxygenase-2) | cardiac contractility (ejection fraction and LV fractional shortening) (Lmna^H222P/H222P mice; 16 weeks of age, treated 8 to 16 weeks, compared with Lmna^+/+ mice) | development of LV dilatation (Lmna^H222P/H222P mice; [1]) | EF (Lmna^H222P/H222P mice) [%] | FS (Lmna^H222P/H222P mice) [%] | IVSD (Lmna^H222P/H222P mice) [mm] | LVEDD (Lmna^H222P/H222P mice) [mm] | LVESD (Lmna^H222P/H222P mice) [mm] | LVPW (Lmna^H222P/H222P mice) [mm] | increase in pERK (immunoblot) (HeLa cells) |
| --- | --- | --- | --- | --- | --- | --- | --- | --- | --- | --- | --- | --- | --- |
| COc1cccc(-c2cc(=O)c3ccccc3o2)c1N [PD98059, 2-(2-amino-3-methoxyphenyl)-4H-1-benzopyran-4-one] | has activity | reduced | Inhibition of ERK1/2 | has activity | normal cardiac contractility | prevented development of LV dilatation | 73.52 ± 4.68 | 41.55 ± 4.29 | 0.69 ± 0.06 | 3.12 ± 0.20 | 1.82 ± 0.16 | 0.77 ± 0.10 | reduced |
| O=C1c2ccccc2-c2n[nH]c3cccc1c23 [SP600125, anthra[1,9-cd]pyrazol-6(2H)-one] | – | – | – | – | – | prevented development of LV dilatation | 69.24 ± 9.59 | 38.70 ± 7.38 | 0.72 ± 0.07 | 3.46 ± 0.27 | 2.30 ± 0.45 | 0.73 ± 0.08 | – |
